Data: US11666658B2, “Rifamycin analogs and antibody-drug conjugates thereof” (Regeneron Pharmaceuticals, Inc., priority 2018, dated 2023)
Converted amounts (≈) assume the structure as drawn. “Also recorded” adds a separate entry of the source.

Columns and labels:
Assay type in all cases: cell-based, Staphylococcus aureus
S. aureus NRS384 [1] = experiment: Broth minimum inhibitory concentration (MIC) assay 1, S. aureus growth inhibition; conditions: Staphylococcus aureus; S. aureus NRS384 in TSB, 24 h at 37° C., OD600 nm
Method: To test the potency of rifamycin analogs of the disclosure in vitro, a broth growth inhibition assay was developed. For the assay, S. aureus NRS384 was grown in Tryptic Soy Broth (TSB) overnight, then sub-cultured 1:50 in fresh TSB and grown for an additional two hours. The culture was then pelleted via centrifugation and washed twice in PBS. The culture was then diluted to 1×10^4 cfu/mL in TSB and 50 μL of the suspension was added per well to a 96 well microtiter dish in duplicate. A dilution series of the indicated antibiotic (an analog according to the disclosure or a previously known analog Rifampicin) was added 1:1 for a final starting concentration of 1×10^−5 M with 1:3 dilutions. The plates were incubated at 37° C. with shaking for 24 h and then the OD600 nm was read on a Spectramax i3 Minimax 300.
A plot of the S. aureus inhibition assay conducted with rifamycin analogs according to the disclosure is shown as FIG. 1.

[2] = tested on: intracellular S. aureus NRS384 in THP-1 macrophages; experiment: Intracellular killing assay 1 (rifamycin analogs, S. aureus in THP-1 macrophages); conditions: for MIC: Staphylococcus aureus, NRS384, lowest concentration that resulted in intracellular S. aureus eradication, 2 h with compound
Method: (§1) THP-1 monocytic cell line was grown in media (RMPI+10% FBS+1% Penicillin/Streptomycin), then seeded at a density of 1e5 cells/well in a 96 well plate and differentiated into macrophages for three days prior to infection using 200 nM PMA. An overnight culture of S. aureus NRS384 was grown in RPMI, washed twice with PBS and resuspended at 1e7 cfu/mL in PBS. THP-1 were washed with warm media (RMPI without FBS) to remove the Penicillin/Streptomycin and then infected with the S. aureus suspension at a multiplicity of infection of 10:1 (S. aureus: macrophages). Plates were spun at 300×g for 5 minutes to synchronize adhesion of the bacteria, then incubated at 37° C. for 2 hours. Free-floating bacteria were removed by washing 2× with warm media and remaining extracellular S. aureus were killed by addition of media containing gentamicin (50 ug/mL). After 1 h, media was aspirated and the indicated compound was added to infected macrophages in media containing 50 µg/mL gentamicin to prevent extracellular growth of S. aureus. After 2 h, plates were washed 2× with warm RPMI without FBS, and 100 ul of THP-1 lysis buffer (0.1% Triton in PBS) was added to each well. S. aureus survival was enumerated by colony forming units through serial dilution and plating onto TSA.

S. aureus NRS384 [3] = experiment: Broth minimum inhibitory concentration (MIC) assay 2; conditions: S. aureus NRS384 in TSB, 24 hours at 37° C., OD600, median of at least two independent experiments; for MIC: Staphylococcus aureus, read-out: S. aureus Broth MIC
Method: To test the potency of rifamycin analogs of the disclosure in vitro, a broth growth inhibition assay was developed. For the assay, S. aureus NRS384 was grown in Tryptic Soy Broth (TSB) overnight, then sub-cultured 1:50 in fresh TSB and grown for an additional two hours. The culture was then pelleted via centrifugation and washed twice in PBS. The culture was then diluted to 1×10^6 cfu/mL in TSB and 100 μL of the suspension was added per well to a 2 mL dilution plate in triplicate. […] The plates were sealed and incubated at 37° C. with shaking for 24 hours, then 150 μL of each sample was added to 96 well microtiter plates and the OD600 nm was read on a Spectramax i3 Minimax 300.
The broth MIC experiments were assessed in at least two independent experiments and the median value is captured below unless indicated otherwise.

[4] = tested on: intracellular S. aureus NRS384 in THP-1 macrophages; experiment: Intracellular killing assay 2 (rifamycin analogs, S. aureus in THP-1 macrophages); conditions: lowest concentration giving intracellular S. aureus below limit of detection (50 cfu/mL) in THP-1 macrophages, median of at least two experiments; for MIC: Staphylococcus aureus, NRS384, 2 h, read-out: S. aureus Intracellular killing MIC
Method: as §1, with “[…] The compounds were” for “After 1 h, media was aspirated and the indicated compound was”, “added” for “added to infected macrophages”, “hours,” for “h,”
The intracellular MIC value indicated represents the median value of at least two independent experiments, unless indicated otherwise.

MIC (S. aureus NRS384 [3]) [µM] | SMILES | MIC [4] [µM] | also measured
– | COc1ccc2nc3c4c5c6c(C)c(O)c4c(=O)c(c-3oc2c1)NC(=O)/C(C)=C\C=C\[C@H](C)[C@H](O)[C@@H](C)[C@@H](O)[C@@H](C)[C@H](OC(C)=O)[C@H](C)[C@@H](OC)/C=C/O[C@@](C)(O6)C5=O [Analog 1a, Rifamycin 4-MeO-Phenol Analogs] | – | MIC (S. aureus NRS384 [1]): 0.014 µM (≈ 0.0114 µg/mL); intracellular S. aureus killing capacity compared to rifampicin (in words) [2]: increased intracellular S. aureus killing capacity compared to rifampicin; MIC [2]: 1 µM (≈ 0.815 µg/mL)
– | CO[C@H]1/C=C/O[C@@]2(C)Oc3c(C)c(O)c4c(=O)c(c5oc6cc(OCc7ccccc7)ccc6nc-5c4c3C2=O)NC(=O)/C(C)=C\C=C\[C@H](C)[C@H](O)[C@@H](C)[C@@H](O)[C@@H](C)[C@H](OC(C)=O)[C@@H]1C [Analog 1b, Rifamycin 4-BnO-Phenol Analogs] | – | MIC (S. aureus NRS384 [1]): 0.12 µM (≈ 0.107 µg/mL); MIC [2]: > 1 µM
– | CO[C@H]1/C=C/O[C@@]2(C)Oc3c(C)c(O)c4c(=O)c(c5n(C)c6cc(O)ccc6nc-5c4c3C2=O)NC(=O)/C(C)=C\C=C\[C@H](C)[C@H](O)[C@@H](C)[C@@H](O)[C@@H](C)[C@H](OC(C)=O)[C@@H]1C [Analog 1d, Rifamycin 4-OH-Phenol N-Methyl analogs] | – | MIC (S. aureus NRS384 [1]): 0.37 µM (≈ 0.301 µg/mL); MIC [2]: > 1 µM
– | CO[C@H]1/C=C/O[C@@]2(C)Oc3c(C)c(O)c4c(=O)c(c5oc6cc(OC7CCNCC7)ccc6nc-5c4c3C2=O)NC(=O)/C(C)=C\C=C\[C@H](C)[C@H](O)[C@@H](C)[C@@H](O)[C@@H](C)[C@H](OC(C)=O)[C@@H]1C [Analog 14] | – | MIC (S. aureus NRS384 [1]): 0.041 µM (≈ 0.0362 µg/mL); intracellular S. aureus killing capacity compared to rifampicin (in words) [2]: increased intracellular S. aureus killing capacity compared to rifampicin; MIC [2]: 1 µM (≈ 0.884 µg/mL)
– | CO[C@H]1/C=C/O[C@@]2(C)Oc3c(C)c(O)c4c(=O)c(c5oc6cc(OCCN(C)C)ccc6nc-5c4c3C2=O)NC(=O)/C(C)=C\C=C\[C@H](C)[C@H](O)[C@@H](C)[C@@H](O)[C@@H](C)[C@H](OC(C)=O)[C@@H]1C [Analog 16a] | – | MIC (S. aureus NRS384 [1]): 0.0015 µM (≈ 0.00131 µg/mL); intracellular S. aureus killing capacity compared to rifampicin (in words) [2]: increased intracellular S. aureus killing capacity compared to rifampicin; also recorded: highest activity; MIC [2]: 0.04 µM (≈ 0.0349 µg/mL)
0.00391 (≈ 0.00353 µg/mL) | COc1cc(OCCN(C)C)cc2oc3c4c(=O)c5c(O)c(C)c6c(c5c-3nc12)C(=O)[C@@](C)(O/C=C/[C@H](OC)[C@@H](C)[C@@H](OC(C)=O)[C@H](C)[C@H](O)[C@H](C)[C@@H](O)[C@@H](C)/C=C/C=C(/C)C(=O)N4)O6 [Analog 43] | 0.04 (≈ 0.0361 µg/mL) | –
0.00391 (≈ 0.00354 µg/mL) | CO[C@H]1/C=C/O[C@@]2(C)Oc3c(C)c(O)c4c(=O)c(c5oc6cc(OCCN(C)C)cc(Cl)c6nc-5c4c3C2=O)NC(=O)/C(C)=C\C=C\[C@H](C)[C@H](O)[C@@H](C)[C@@H](O)[C@@H](C)[C@H](OC(C)=O)[C@@H]1C [Analog 45] | 1 (≈ 0.906 µg/mL) | –
0.0156 (≈ 0.0141 µg/mL) | CO[C@H]1/C=C/O[C@@]2(C)Oc3c(C)c(O)c4c(=O)c(c5oc6cc(OCCN(C)C)c(Cl)cc6nc-5c4c3C2=O)NC(=O)/C(C)=C\C=C\[C@H](C)[C@H](O)[C@@H](C)[C@@H](O)[C@@H](C)[C@H](OC(C)=O)[C@@H]1C [Analog 48] | 1 (≈ 0.906 µg/mL) | –
0.0156 (≈ 0.0147 µg/mL) | CCCCOc1cc(OCCN(C)C)cc2oc3c4c(=O)c5c(O)c(C)c6c(c5c-3nc12)C(=O)[C@@](C)(O/C=C/[C@H](OC)[C@@H](C)[C@@H](OC(C)=O)[C@H](C)[C@H](O)[C@H](C)[C@@H](O)[C@@H](C)/C=C/C=C(/C)C(=O)N4)O6 [Analog 50] | 1 (≈ 0.944 µg/mL) | –
0.0625 (≈ 0.0611 µg/mL) | CO[C@H]1/C=C/O[C@@]2(C)Oc3c(C)c(O)c4c(=O)c(c5oc6cc(OCCN(C)C)cc(OCc7ccccc7)c6nc-5c4c3C2=O)NC(=O)/C(C)=C\C=C\[C@H](C)[C@H](O)[C@@H](C)[C@@H](O)[C@@H](C)[C@H](OC(C)=O)[C@@H]1C [Analog 52] | 1 (≈ 0.978 µg/mL) | –
0.0156 (≈ 0.0139 µg/mL) | CO[C@H]1/C=C/O[C@@]2(C)Oc3c(C)c(O)c4c(=O)c(c5oc6cc(OCCN(C)C)cc(F)c6nc-5c4c3C2=O)NC(=O)/C(C)=C\C=C\[C@H](C)[C@H](O)[C@@H](C)[C@@H](O)[C@@H](C)[C@H](OC(C)=O)[C@@H]1C [Analog 55] | 0.2 (≈ 0.178 µg/mL) | –
0.0625 (≈ 0.0512 µg/mL) | CO[C@H]1/C=C/O[C@@]2(C)Oc3c(C)c(O)c4c(=O)c(c5oc6cc(O)cc(F)c6nc-5c4c3C2=O)NC(=O)/C(C)=C\C=C\[C@H](C)[C@H](O)[C@@H](C)[C@@H](O)[C@@H](C)[C@H](OC(C)=O)[C@@H]1C [Analog 55a] | > 1 | –
0.00391 (≈ 0.00359 µg/mL) | CO[C@H]1/C=C/O[C@@]2(C)Oc3c(C)c(O)c4c(=O)c(c5oc6cc(OCCN(C)C)cc(SC)c6nc-5c4c3C2=O)NC(=O)/C(C)=C\C=C\[C@H](C)[C@H](O)[C@@H](C)[C@@H](O)[C@@H](C)[C@H](OC(C)=O)[C@@H]1C [Analog 60] | 0.2 (≈ 0.184 µg/mL) | –
0.0156 (≈ 0.0143 µg/mL) | CO[C@H]1/C=C/O[C@@]2(C)Oc3c(C)c(O)c4c(=O)c(c5oc6cc(OC7CCN(C)CC7)cc(O)c6nc-5c4c3C2=O)NC(=O)/C(C)=C\C=C\[C@H](C)[C@H](O)[C@@H](C)[C@@H](O)[C@@H](C)[C@H](OC(C)=O)[C@@H]1C [Analog 68] | 0.2 (≈ 0.183 µg/mL) | –
0.0156 (≈ 0.0136 µg/mL) | CO[C@H]1/C=C/O[C@@]2(C)Oc3c(C)c(O)c4c(=O)c(c5oc6cccc(OCCN(C)C)c6nc-5c4c3C2=O)NC(=O)/C(C)=C\C=C\[C@H](C)[C@H](O)[C@@H](C)[C@@H](O)[C@@H](C)[C@H](OC(C)=O)[C@@H]1C [Analog 71] | > 1 | –
0.0625 (≈ 0.0541 µg/mL) | CO[C@H]1/C=C/O[C@@]2(C)Oc3c(C)c(O)c4c(=O)c(c5oc6cc(C#CCN(C)C)ccc6nc-5c4c3C2=O)NC(=O)/C(C)=C\C=C\[C@H](C)[C@H](O)[C@@H](C)[C@@H](O)[C@@H](C)[C@H](OC(C)=O)[C@@H]1C [Analog 72] | > 1 | –
0.29 (≈ 0.252 µg/mL) | CO[C@H]1/C=C/O[C@@]2(C)Oc3c(C)c(O)c4c(=O)c(c5oc6cc(CCCN(C)C)ccc6nc-5c4c3C2=O)NC(=O)/C(C)=C\C=C\[C@H](C)[C@H](O)[C@@H](C)[C@@H](O)[C@@H](C)[C@H](OC(C)=O)[C@@H]1C [Analog 75] | > 1 | –
– | CO[C@H]1/C=C/O[C@@]2(C)Oc3c(C)c(O)c4c(=O)c(c5oc6cccc(O)c6nc-5c4c3C2=O)NCC(=O)/C(C)=C\C=C\[C@H](C)[C@H](O)[C@@H](C)[C@@H](O)[C@@H](C)[C@H](OC(C)=O)[C@@H]1C [Analog P1] | – | S. aureus Broth MIC (S. aureus NRS384 [3]): 0.0625 µM; S. aureus Intracellular killing MIC [4]: 0.2 µM
– | CO[C@H]1/C=C/O[C@@]2(C)Oc3c(C)c(O)c4c(=O)c(c5oc6cc(F)ccc6nc-5c4c3C2=O)NCC(=O)/C(C)=C\C=C\[C@H](C)[C@H](O)[C@@H](C)[C@@H](O)[C@@H](C)[C@H](O)[C@@H]1C [Analog P2] | – | S. aureus Broth MIC (S. aureus NRS384 [3]): 0.0625 µM; S. aureus Intracellular killing MIC [4]: >1 µM
